Test results taken from patent US20140356343A1, “COMPOSITION FOR TREATING PARKINSON'S DISEASE” (priority 2011, published 2014).
Where two headings read alike, the source gives them in different places. No end group written: not given here.

Test system: unilateral 6-hydroxydopamine (6-OHDA) lesioned rat
Format: in vivo, Male Sprague-Dawley rats
Details: for effect on onset of rotational action of apamin: given with apamin
Source text: The potential antiparkinsonian activity of apitoxin (bee venom; Alyostal®), and certain of its constituents such as apamin, melittin, hyaluronidase, and others were investigated in the standard, unilateral 6-hydroxydopamine (6-OHDA) lesioned rat model, in animals responding to an apomorphine challenge, according to the method previously described with minor modifications (Oh J D, Chartisathian K, Ahmed S M, and Chase T N. (2003) J of Neurosci. Res. 72, 768-780, Oh J D, Chartisathian K, Chase T N and Butcher L L, (2000) Brain Res. 853, 174-185, Oh J D and Chase T N. (2002) Amino Acids 23, 133-139, Oh J D, Del Dotto P, Chase T N. (1997) Neurosci Lett. 228, 5-8, Oh J D, Geller A I, Zhang G, Chase T N. (2003) Br. Res. 971, 18-30, Oh J D, Russell D, Vaughan C L and Chase T N. (1998) Br. Res. 813, 150-159.). Conventional anti-parkinsonian dopamine (DA) agonists, apomorphine, amphetamine, and L-dopa were used as comparator drugs. Control animals received vehicle, phosphate buffered saline (PBS). Rotation (turning) behavior in response to drug challenge was used as a predictor of anti-parkinson activity. All compounds or vehicle were administered either subcutaneously (s.c.) or intraperitonealy (i.p.).
The anti-parkinson activity of various test substances was studied as previously described 1-6. Male Sprague-Dawley rats weighing approximately 300 g were housed with free access to food and water. Under […] (50 mg/kg, i.p.), the nigrostriatal pathway was unilaterally lesioned by administering 6-OHDA HCl (8 μg in 4 μL of saline with 0.02% ascorbate) into the left medial forebrain bundle (AP −5.0, L 1.3, V 8.0 from the dura mater). Following surgery, rats were challenged with apomorphine (0.1 mg/kg, s.c.), to confirm the lesion of nigro-striatal pathway. Rats that responded to apomorphine were kept for further testing.
Rats received test drugs, comparator drugs, or vehicle on post-surgical Week 3 following 6-OHDA lesioning and subsequently for additional […] (Week 4-10 post-surgery).
Rotation behavior was measured by placing rats in a rotometer and measuring turning behavior over 5-minute periods (5-min bins). To measure rotation behavior, each animal was placed at least 10 minutes prior to the drug or vehicle administration into a rotometer and turning was measured. Animals then received test drugs, and turning behavior was measured as described above for 4 to 12 hours post-drug administration.

[1] = Melittin 0.5 to 3 mg/kg with apamin 0.5 to 1.0 mg/kg
[2] = Melittin alone, dose range 1-3 mg/kg
[3] = PL-A2 alone, approximately 2 and 3 mg/kg i.p.
[4] = Phospholipase A2 alone, dose range 2 to 3 mg/kg
[5] = Hyaluronidase alone, dose range 10 to 30 mg/kg

CC(N)Cc1ccccc1 (centres unmarked) [amphetamine, reference compound]
effect on apamin-induced ipsilateral rotation (amphetamine co-administration at less than the standard dose of 0.05 mg/kg i.p.): mildly potentiate

Secapin [reference compound]
Atypical Motor Behaviors (Secapin alone, 1-20 mg/kg): None
Rotational Response Contralateral (Secapin alone, 1-20 mg/kg): 5 number of turns in 12 hours
Rotational Response Ipsilateral (Secapin alone, 1-20 mg/kg): 40 number of turns in 12 hours
rotational behavior above baseline (spontaneous rotation) (Secapin at 1 to 20 mg/kg): little or no rotational behavior
ability similar to apamin to induce a conspicuous turning response (apitoxin component given alone): none

Tertiapin (ALCNCNRIIIPHMCWKKCGKK; UniProt P56587 1-21, looked up) [apitoxin component, Sigma-Aldrich #T8316, reference compound]
Atypical Motor Behaviors (Tertiapin alone, 1 and 3 mg/kg): None
Rotational Response Contralateral (Tertiapin alone, 1 and 3 mg/kg): 5 number of turns in 12 hours
Rotational Response Ipsilateral (Tertiapin alone, 1 and 3 mg/kg): 40 number of turns in 12 hours
rotational behavior above baseline (spontaneous rotation) (Tertiapin at 1 and 3 mg/kg): little or no rotational behavior
ability similar to apamin to induce a conspicuous turning response (apitoxin component given alone): none

CC[C@H](C)[C@H](NC(=O)CN)C(=O)NCC(=O)N[C@@H](C)C(=O)N[C@H](C(=O)N[C@@H](CC(C)C)C(=O)N[C@@H](CCCCN)C(=O)N[C@H](C(=O)N[C@@H](CC(C)C)C(=O)N[C@H](C(=O)N[C@H](C(=O)NCC(=O)N[C@@H](CC(C)C)C(=O)N1CCC[C@H]1C(=O)N[C@@H](C)C(=O)N[C@@H](CC(C)C)C(=O)N[C@H](C(=O)N[C@@H](CO)C(=O)N[C@@H](Cc1c[nH]c2ccccc12)C(=O)N[C@H](C(=O)N[C@@H](CCCCN)C(=O)N[C@@H](CCCNC(=N)N)C(=O)N[C@@H](CCCCN)C(=O)N[C@@H](CCCNC(=N)N)C(=O)N[C@@H](CCC(N)=O)C(=O)N[C@@H](CCC(N)=O)C(N)=O)[C@@H](C)CC)[C@@H](C)CC)[C@@H](C)O)[C@@H](C)O)C(C)C)C(C)C [Melittin]
effect on rotatory response to apamin (0.25 mg/kg apamin and 0.75 mg/kg melittin): potentiated
atypical motor behaviors that apamin usually induces [1]: mild to absence
onset of contralateral rotations [1]: faster onset
Atypical Motor Behaviors [2]: None
Rotational Response Contralateral [2]: 10 number of turns in 12 hours
Rotational Response Ipsilateral [2]: 45 to 50 number of turns in 12 hours
ability similar to apamin to induce a conspicuous turning response (apitoxin component given alone): none
effect on onset of rotational action of apamin: significantly hasten
rotational response (melittin alone 0.5 to 10 mg/kg i.p., contralateral more frequent than ipsilateral): modest, intermittent rotational response

Phospholipase A-2 [Phospholipase A2]
effect on rotatory response to apamin (0.5 mg/kg apamin and 5 mg/kg PLA-2): potentiated
duration of ipsilateral rotations [3]: about 4 hours
rotational response [3]: induced ipsilateral rotations
start of ipsilateral rotations after administration [3]: 1 to 4 h
Atypical Motor Behaviors (PL-A2 given alone): No atypical motor behaviors were observed
motor response (PL-A2 given alone, 1 mg/kg i.p.): minimal squirming response
effect on onset of turning behavior (PLA-2 given with apamine): accelerated
effect on turning behavior (PLA-2 given with apamine): moderately potentiated
Atypical Motor Behaviors [4]: None
Rotational Response Contralateral [4]: 10 number of turns in 12 hours
Rotational Response Ipsilateral [4]: 50 to 60 number of turns in 12 hours
ability similar to apamin to induce a conspicuous turning response (apitoxin component given alone): none
effect on onset of rotational action of apamin: significantly hasten

N[C@@H](Cc1ccc(O)c(O)c1)C(=O)O [levodopa, reference compound]
effect on apamin-induced contralateral rotations (levodopa co-administration at less than standard dose, 5 mg/kg i.p.): mildly potentiate

CN1CCc2cccc3c2[C@H]1Cc1ccc(O)c(O)c1-3 [Apomorphine, apomorphine, reference compound]
effect on apamin-induced contralateral rotations (apomorphine co-administration at less than standard dose, 0.005 mg/kg s.c.): mildly potentiate

Hyaluronidase
effect on atypical motor behaviors induced by apamin (1.0 mg/kg apamin and 20 mg/kg hyaluronidase): reduced
Atypical Motor Behaviors [5]: None
Rotational Response Contralateral [5]: 5 number of turns in 12 hours
Rotational Response Ipsilateral [5]: 40 number of turns in 12 hours
ability similar to apamin to induce a conspicuous turning response (apitoxin component given alone): none
effect on ipsilateral turning behavior induced by apamin (hyaluronidase 5 to 20 mg/kg i.p. with apamin 0.1 to 1.0 mg/kg): mildly potentiated
turning (hyaluronidase given alone, 0.5 to 30 mg/kg i.p.): did not induce turning
effect on atypical motor behaviors observed with higher doses of apamin (hyaluronidase with apamin, vs apamin given alone): decreased

HTGAVLAGV [HTGAVLAGV, reference compound]
Atypical Motor Behaviors (HTGAVLAGV alone, 1-10 mg/kg): None

CC(C)C[C@@H]1NC(=O)[C@H](C)NC(=O)[C@H]([C@@H](C)O)NC(=O)[C@H](CCC(=O)O)NC(=O)[C@@H]2CCCN2C(=O)[C@H](C)NC(=O)[C@H](CCCCN)NC(=O)[C@@H]2CSSC[C@@H](C(=O)N[C@@H](CCC(N)=O)C(=O)N[C@@H](CCC(N)=O)C(=O)N[C@@H](Cc3cnc[nH]3)C(N)=O)NC(=O)[C@H](CCCNC(=N)N)NC(=O)[C@H](CCCNC(=N)N)NC(=O)[C@H](C)NC(=O)[C@H](CSSC[C@H](N)C(=O)N[C@@H](CC(N)=O)C(=O)N2)NC1=O [Apamin, apamin]
Atypical Motor Behaviors (Apamin 0.5 mg/kg alone): None
Atypical Motor Behaviors (Apamin 1 mg/kg alone): Mild
Atypical Motor Behaviors (dose at which seen) (apamin alone): ≧1.5 mg/kg
doses at which abnormal motor behaviors increasingly interfered with normal and rotatory motor behaviors (apamin alone): 1.5 to 3.0 mg/kg
doses at which abnormal motor behaviors were clinically insignificant (apamin alone): 0.75 to 1.50 mg/kg
dose at which atypical motor behavior began to appear (apamin alone, tremors, dystonic postures, alterations in muscular tone, locomotor incoordination): about 1.5 mg/kg
therapeutic index compared with apitoxin (motoric response, apamin alone): lower therapeutic index

Mast Cell Degranulating Peptide (IKCNCKRHVIKPHICRKICGKN; ends and bridges not checked; cysteine pairing not given here; UniProt P01499 28-49, looked up) [apitoxin component, GenScript #RP10663, reference compound]
ability similar to apamin to induce a conspicuous turning response (apitoxin component given alone): none

NCCc1c[nH]cn1 [histamine, Histamine, reference compound]
ability similar to apamin to induce a conspicuous turning response (rat, in vivo): none
